Assay results reported in patent US20220257698A1, “ANGIOTENSIN TYPE 2 (AT2) RECEPTOR AGONISTS FOR USE IN THE TREATMENT OF CANCER” (LANTHIOPEP B.V., priority 2019, published 2022).

Test system: OvCa13329 ovarian cancer PDX model
Assay: KcAng(1-7) on growth of ovarian carcinoma PDX OvCa13329 in mice
Assay type: in vivo, NMRI nu/nu mice (human PDX)
Details: for optT/C: day 11 of the treatment
Protocol: In vivo studies were conducted at EPO GmbH Berlin. Large studies (FIG. 1A, 2, 3, 4, 5) comprised 3 groups of 10 mice/group and 5 animals as reserve, as outlined in Table 1. Smaller studies (FIG. 1B, 1C, 1D) comprised 2 groups of mice of 3 mice per group. The animals were allocated to the various treatment groups (e.g. 0.2 μg/kg and 30 μg/kg) with a maximum of 10 animals per group. […] The groups received subcutaneous (s.c.) drug injection (for max. 28 days) as outlined in the Table 1.
NMRI nu/nu mice were used in this study. The animals were female at age of 6 to 8 weeks. The respective PDX tumors were inoculated subcutaneously (s.c.), and the tumors were grown to achieve palpable tumor sizes before start of the respective treatments. The PDX included breast (MaCa4151), colon (Co9689A), head & neck (HN10309), lung (Lu7433) and ovarian (OvCa13329) cancer (Table 2).
Treatment with KcAng(1-7) was started with palpable tumors after the randomization of animals regarding tumor volume. KcAng(1-7) was applied s.c. by daily injections at […] or 30 μg/kg dose for a maximum of 28 days (or earlier as defined by the humane end point for the study).
KcAng(1-7) was prepared as follows: The compounds was suspended in sterile PBS resulting in a clear solution. The remains of this formulation were stored at 4° C.
Tumor growth stimulatory or inhibitory activity of the KcAng(1-7) was evaluated by determination of tumor volumes (TV). During the study, tumor volumes and body weight were measured twice a week, and the ratio of the mean tumor volumes between the compound-treated group and the vehicle-treated group (T/C) was calculated.
Tumor volume=(tumor width)×(tumor width)×(tumor length)+2
T/C=T÷C • T: Mean estimated tumor volume of the compound-treated group • C: Mean estimated tumor volume of the vehicle-treated group

[1] = Gr. B 0.2 μg/kg/d s.c., Day 7 (Meas. 1)
[2] = Gr. B 0.2 μg/kg/d s.c., Day 11 (Meas. 2)
[3] = Gr. B 0.2 μg/kg/d s.c., Day 14 (Meas. 3)
[4] = Gr. B 0.2 μg/kg/d s.c., Day 18 (Meas. 4)
[5] = Gr. B 0.2 μg/kg/d s.c., Day 21 (Meas. 5)
[6] = Gr. C 30 μg/kg/d s.c., Day 7 (Meas. 1)
[7] = Gr. C 30 μg/kg/d s.c., Day 11 (Meas. 2)
[8] = Gr. C 30 μg/kg/d s.c., Day 14 (Meas. 3)
[9] = Gr. C 30 μg/kg/d s.c., Day 18 (Meas. 4)
[10] = Gr. C 30 μg/kg/d s.c., Day 21 (Meas. 5)

Substance: Lys-Asp-Arg-Val-Abu/Ala-Ile-His-Abu/Ala (KDRVAIHA; not fully specified; cyclic thioether (Abu/Ala bridge); VARIANT (5)..(5) /replace=“Abu”; VARIANT (8)..(8) /replace=“Abu”; SITE (1)..(8) /note=“Variant residues given in the sequence have no preference with respect to those in the annotations for variant positions”) [KcAng(1-7)]
- optT/C (0.2 μg/kg): 55.8%
- optT/C (30 μg/kg): 51%
- effect on tumor volume (0.2 and 30 μg/kg, 15 days): significant reduction in tumor volume
- RTV Mean [1]: 1
- RTV Median [1]: 1
- T/C [1]: 102.4%
- Tumor Vol. Mean [1]: 0.122 cm^3
- Tumor Vol. Median [1]: 0.123 cm^3
- RTV Mean [2]: 1.6
- RTV Median [2]: 1.5
- T/C [2]: 55.8%
- Tumor Vol. Mean [2]: 0.192 cm^3
- Tumor Vol. Median [2]: 0.181 cm^3
- RTV Mean [3]: 3.1
- RTV Median [3]: 3
- T/C [3]: 68.5%
- Tumor Vol. Mean [3]: 0.384 cm^3
- Tumor Vol. Median [3]: 0.337 cm^3
- RTV Mean [4]: 8.5
- RTV Median [4]: 8
- T/C [4]: 73.9%
- Tumor Vol. Mean [4]: 0.985 cm^3
- Tumor Vol. Median [4]: 1.015 cm^3
- RTV Mean [5]: 13.4
- RTV Median [5]: 11.9
- T/C [5]: 79.3%
- Tumor Vol. Mean [5]: 1.547 cm^3
- Tumor Vol. Median [5]: 1.398 cm^3
- RTV Mean [6]: 1
- RTV Median [6]: 1
- T/C [6]: 97%
- Tumor Vol. Mean [6]: 0.116 cm^3
- Tumor Vol. Median [6]: 0.115 cm^3
- RTV Mean [7]: 1.6
- RTV Median [7]: 1.6
- T/C [7]: 51.1%
- Tumor Vol. Mean [7]: 0.176 cm^3
- Tumor Vol. Median [7]: 0.182 cm^3
- RTV Mean [8]: 2.6
- RTV Median [8]: 2.7
- T/C [8]: 54.9%
- Tumor Vol. Mean [8]: 0.308 cm^3
- Tumor Vol. Median [8]: 0.33 cm^3
- RTV Mean [9]: 8.4
- RTV Median [9]: 8.4
- T/C [9]: 72.2%
- Tumor Vol. Mean [9]: 0.962 cm^3
- Tumor Vol. Median [9]: 0.995 cm^3
- RTV Mean [10]: 12.6
- RTV Median [10]: 13
- T/C [10]: 73.9%
- Tumor Vol. Mean [10]: 1.442 cm^3
- Tumor Vol. Median [10]: 1.503 cm^3
